# Measured values as given in PMC4538536, “In Silico-Based High-Throughput Screen for Discovery of Novel Combinations for Tuberculosis Treatment” (Antimicrobial Agents and Chemotherapy, 2015).
# Where two headings read alike, the source gives them in different places.
# How the values were obtained:
# [1] = system: M. tuberculosis H37Rv; experiment: In vitro bactericidal-effect analysis (CFU enumeration of checkerboard wells); type: cell-based, Mycobacterium tuberculosis; conditions: single drug at its MIC (FIC of 1); positive = reduction in CFU
# Description: For determining the extent of the bactericidal effect, sample wells which remained blue in the resazurin microtiter assay (REMA) and whose ΣFICs were within the synergistic-to-additive range (<0.7 for doublets and <1.5 for triplets) were plated on Middlebrook 7H10 agar medium and incubated at 37°C for 21 to 28 days, following which bacterial colonies were enumerated to obtain the net reduction in CFU in comparison to the counts for the untreated controls at the start of drug testing, as well as to that achieved when M. tuberculosis was exposed to each drug alone.
# [2] = system: M. tuberculosis H37Rv; experiment: MIC determination, resazurin-based microplate assay; type: cell-based, Mycobacterium tuberculosis; conditions: Mycobacterium tuberculosis, single drug
# [3] = In vivo pharmacokinetics in infected mice (plasma, LC-MS/MS); set-up: species or system BALB/c mice; conditions: mouse; for AUC(0-t) / Cmax: po, steady state, infected mice
# Description: The drugs were formulated in 0.5% hydroxypropyl methyl cellulose (HPMC)–0.1% Tween 80 suspensions as 3- or 4-drug combinations. Formulations were prepared by weighing and adding each compound to the bottle, according to the design. Formulation vehicle was added, and the suspension was stirred overnight. Only uniform suspensions were used, while those that precipitated were abandoned. Formulations were prepared every week, and compound stability was estimated at the end of the week. Pharmacokinetics (PK) analysis was performed on infected mice on the 20th day of dosing. Blood samples were collected from each mouse at 0.5, 2, 4, 6, and 24 h after compound administration. Blood samples of about 30 μl were collected from mice in all groups by serial sampling via the saphenous vein into Microvette CB300 tubes (Starstedt, Germany) coated with EDTA, and plasma (10 μl) was separated following centrifugation. Plasma samples were stored at –20°C until analysis using liquid chromatography-tandem mass spectrometry (LC-MS/MS).
# A 1-mg/ml stock solution of each compound was prepared in dimethyl sulfoxide (DMSO) for all of the analytes except PZA and LZD, for which the stock solution was 10 mg/ml in DMSO, and RIF, for which the stock solution was prepared in 50% acetonitrile in water. Three different sets of calibration standard (CS) combinations were prepared by 2-fold dilution of the stock solutions. CS set 1 contained analytes CLO, BDQ, PA824, PZA, and SQ109, CS set 2 contained analytes BTZ043, MXF, THI, EMB, and PZA, and CS set 3 contained LZD, INH, RIF, and PZA. A 16-point calibration curve was utilized for all analytes, and the standard curves ranged from 0.0005 to 20 μg/ml except for PZA and LZD, for which the standard curve range was 0.006 to 200 μg/ml. Plasma samples were precipitated by adding chilled acetonitrile (1:10, vol/vol) containing carbamazepine as an internal standard (10 ng/ml). Samples were vortexed and then centrifuged at 4,000 rpm for 30 min at 10°C. The resulting supernatant was mixed with the mobile phase (50% acetonitrile in water with 0.1% formic acid). Five microliters of the sample was injected on to a liquid chromatographic system (Acquity ultraperformance liquid chromatography [UPLC] system, Waters, Milford, MA) coupled to a triple-quadrupole mass spectrometer (Xevo TQ-S; Waters, Milford, MA). Samples were separated on an LC column (ACE 3 C18, 50 by 4.6 mm, 3 μm particle size; Advanced Chromatography Technologies, Aberdeen, Scotland) by isocratic elution with 40 parts of 20 mM ammonium formate containing 0.1% (vol/vol) formic acid and 60 parts of acetonitrile at a flow rate of 0.5 ml/min with a run time of 4 min. Samples were acquired in positive ion mode and detected by multiple reaction monitoring (MRM). The concentrations of the analyte were determined from a standard curve obtained by plotting known concentrations of the analyte against peak area ratios (analyte/internal standard peak response).
# PK analyses of the plasma concentration-time relationships were performed with Phoenix software (version 6.2; Pharsight, USA). A noncompartmental analysis program, model 200, was used to calculate PK parameters. The maximum concentration of drug in plasma (Cmax), time to Cmax (Tmax), elimination half-life (t1/2), and area under the concentration-time curve (AUC) from time zero to infinity (AUC0–∞) were estimated. AUC was computed using the trapezoidal rule (linear up and log down), and the AUC0–∞ was considered only when the extrapolated AUC was not more than 20% of the original value. A minimum of three sample points in the terminal slope were used to calculate half-life.
# [4] = tested individually; SQ109 at 25 mg/kg of body weight, EMB at 100-mg/kg dose; cited from earlier work
# [5] = BALB/c, plasma, 100 mg/kg, Group 8 triplet PA824 50/BDQ 25/EMB 100 mg/kg oral, read-out: AUC0-24 in Triplet
# [6] = BALB/c, plasma, 100 mg/kg, Group 8 triplet PA824 50/BDQ 25/EMB 100 mg/kg oral, read-out: Cmax in Triplet
# [7] = BALB/c, plasma, 100 mg/kg, Ref. regimen triplet INH 30/RIF 10/EMB 100 mg/kg oral, read-out: AUC0-24 in Triplet
# [8] = BALB/c, plasma, 100 mg/kg, Ref. regimen triplet INH 30/RIF 10/EMB 100 mg/kg oral, read-out: Cmax in Triplet
# [9] = BALB/c, plasma, 150 mg/kg, Group 8 quartet PA824 50/BDQ 25/EMB 100/PZA 150 mg/kg oral, read-out: AUC0-24 in Quartet
# [10] = BALB/c, plasma, 150 mg/kg, Group 8 quartet PA824 50/BDQ 25/EMB 100/PZA 150 mg/kg oral, read-out: Cmax in Quartet
# [11] = BALB/c, plasma, 150 mg/kg, Ref. regimen quartet INH 30/RIF 10/EMB 100/PZA 150 mg/kg oral, read-out: AUC0-24 in Quartet
# [12] = BALB/c, plasma, 150 mg/kg, Ref. regimen quartet INH 30/RIF 10/EMB 100/PZA 150 mg/kg oral, read-out: Cmax in Quartet
# [13] = BALB/c, plasma, 50 mg/kg, Group 1 triplet CFZ 20/BDQ 25/PA824 50 mg/kg oral, read-out: AUC0-24 in Triplet
# [14] = BALB/c, plasma, 50 mg/kg, Group 1 triplet CFZ 20/BDQ 25/PA824 50 mg/kg oral, read-out: Cmax in Triplet
# [15] = BALB/c, plasma, 150 mg/kg, Group 1 quartet CFZ 20/BDQ 25/PA824 50/PZA 150 mg/kg oral, read-out: AUC0-24 in Quartet
# [16] = BALB/c, plasma, 150 mg/kg, Group 1 quartet CFZ 20/BDQ 25/PA824 50/PZA 150 mg/kg oral, read-out: Cmax in Quartet
Compound,ΔLog10 CFU/ml at the MIC [1] [Log10 CFU/ml],MIC [2] [µM],"AUC(0-t) [3, 5] [ng·h/mL]","Cmax [3, 6] [ng/mL]","AUC(0-t) [3, 7] [ng·h/mL]","Cmax [3, 8] [ng/mL]","AUC(0-t) [3, 9] [ng·h/mL]","Cmax [3, 10] [ng/mL]","AUC(0-t) [3, 11] [ng·h/mL]","Cmax [3, 12] [ng/mL]","AUC(0-t) [3, 13] [ng·h/mL]","Cmax [3, 14] [ng/mL]","AUC(0-t) [3, 15] [ng·h/mL]","Cmax [3, 16] [ng/mL]",other results
CC[C@@H](CO)NCCN[C@@H](CC)CO [Ethambutol],1.40,19.6,9900 ± 1600,2700 ± 200,7900 ± 2800,2200 ± 500,5700 ± 1100,1500 ± 300,6600 ± 1800,1700 ± 600,–,–,–,–,"AUC ([3]; BALB/c, plasma, oral, SQ109 25 mg/kg, EMB 100 mg/kg, in 3- and 4-drug combinations, read-out: observed AUC in combinations): 4000 to 9900 ng·h/mL; AUC(0-t) ([3]; BALB/c, plasma, 25 mg/kg, Group 5 triplet EMB 100/BDQ 25/SQ109 25 mg/kg oral, read-out: AUC0-24 in Triplet): 4100 ± 1400 ng·h/mL; Cmax ([3]; BALB/c, plasma, 25 mg/kg, Group 5 triplet EMB 100/BDQ 25/SQ109 25 mg/kg oral, read-out: Cmax in Triplet): 1300 ± 600 ng/mL; AUC(0-t) ([3]; BALB/c, plasma, 130 mg/kg, Group 9 triplet EMB 100/SQ109 25/LZD 130 mg/kg oral, read-out: AUC0-24 in Triplet): 9600 ± 1600 ng·h/mL; Cmax ([3]; BALB/c, plasma, 130 mg/kg, Group 9 triplet EMB 100/SQ109 25/LZD 130 mg/kg oral, read-out: Cmax in Triplet): 1100 ± 200 ng/mL; AUC(0-t) ([3]; BALB/c, plasma, 150 mg/kg, Group 5 quartet EMB 100/BDQ 25/SQ109 25/PZA 150 mg/kg oral, read-out: AUC0-24 in Quartet): 4000 ± 1100 ng·h/mL; Cmax ([3]; BALB/c, plasma, 150 mg/kg, Group 5 quartet EMB 100/BDQ 25/SQ109 25/PZA 150 mg/kg oral, read-out: Cmax in Quartet): 1200 ± 500 ng/mL; plasma exposure in combination compared with individual (reported) exposure ([3]; in vivo): lower; reported AUC [4]: 28000 ng·h/mL"
NNC(=O)c1ccncc1 [Isoniazid],1.02,0.22,–,–,19800 ± 4700,10800 ± 2900,–,–,12000 ± 3400,7000 ± 3200,–,–,–,–,–
CC(C)/N=c1\cc2n(-c3ccc(Cl)cc3)c3ccccc3nc-2cc1Nc1ccc(Cl)cc1 [Clofazimine],0.72,0.26,–,–,–,–,–,–,–,–,42800 ± 5400,2300 ± 200,48000 ± 5200,2400 ± 200,–
O=[N+]([O-])c1cn2c(n1)OC[C@@H](OCc1ccc(OC(F)(F)F)cc1)C2 [PA824],1.07,1.09,119000 ± 13800,13300 ± 500,–,–,66400 ± 19000,9800 ± 3600,–,–,76700 ± 18500,11200 ± 2400,60900 ± 8000,7800 ± 1100,"AUC(0-t) ([3]; BALB/c, plasma, 50 mg/kg, Group 2 triplet SQ109 25/BDQ 25/PA824 50 mg/kg oral, read-out: AUC0-24 in Triplet): 86200 ± 8600 ng·h/mL; Cmax ([3]; BALB/c, plasma, 50 mg/kg, Group 2 triplet SQ109 25/BDQ 25/PA824 50 mg/kg oral, read-out: Cmax in Triplet): 9300 ± 2300 ng/mL; AUC(0-t) ([3]; BALB/c, plasma, 150 mg/kg, Group 2 quartet SQ109 25/BDQ 25/PA824 50/PZA 150 mg/kg oral, read-out: AUC0-24 in Quartet): 60700 ± 10000 ng·h/mL; Cmax ([3]; BALB/c, plasma, 150 mg/kg, Group 2 quartet SQ109 25/BDQ 25/PA824 50/PZA 150 mg/kg oral, read-out: Cmax in Quartet): 7300 ± 1100 ng/mL; AUC(0-t) ([3]; BALB/c, plasma, 150 mg/kg, Group 7 quartet PA824 50/BDQ 25/MXF 400/PZA 150 mg/kg oral, read-out: AUC0-24 in Quartet): 92100 ± 12700 ng·h/mL; Cmax ([3]; BALB/c, plasma, 150 mg/kg, Group 7 quartet PA824 50/BDQ 25/MXF 400/PZA 150 mg/kg oral, read-out: Cmax in Quartet): 6000 ± 800 ng/mL; AUC(0-t) ([3]; BALB/c, plasma, 400 mg/kg, Group 7 triplet PA824 50/BDQ 25/MXF 400 mg/kg oral, read-out: AUC0-24 in Triplet): 134000 ± 41700 ng·h/mL; Cmax ([3]; BALB/c, plasma, 400 mg/kg, Group 7 triplet PA824 50/BDQ 25/MXF 400 mg/kg oral, read-out: Cmax in Triplet): 8400 ± 1000 ng/mL"
CO[C@H]1/C=C/O[C@@]2(C)Oc3c(C)c(O)c4c(O)c(c(/C=N/N5CCN(C)CC5)c(O)c4c3C2=O)NC(=O)/C(C)=C\C=C\[C@H](C)[C@H](O)[C@@H](C)[C@@H](O)[C@@H](C)[C@H](OC(C)=O)[C@@H]1C [Rifampin],1.24,0.009,–,–,25400 ± 7300,4900 ± 1300,–,–,22200 ± 8600,5500 ± 3000,–,–,–,–,–
